In BindingDB's records for patent US20250313563 (The Broad Institute, 2025):
“And” between values parts separate entries of the source, which are not always exact repeats. Equal values may be shown once.

Tests used:
[1] = target: Glycogen synthase kinase-3 alpha (Homo sapiens, UniProt P49840); experiment: TR-FRET Assay
How it was run: (§1)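 Compound was preincubated 30 min in assay buffer before the kinase reaction, which was quenched with EDTA. Phosphorylation was detected by TR-FRET after adding a solution of 40 nM streptavidin-d2 and 2 nM Tb-labelled anti-pSer641 antibody.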

[2] = target: Glycogen synthase kinase-3 beta (Homo sapiens, UniProt P49841); experiment: TR-FRET Assay
Sequence of Glycogen synthase kinase-3 beta (P49841 whole entry): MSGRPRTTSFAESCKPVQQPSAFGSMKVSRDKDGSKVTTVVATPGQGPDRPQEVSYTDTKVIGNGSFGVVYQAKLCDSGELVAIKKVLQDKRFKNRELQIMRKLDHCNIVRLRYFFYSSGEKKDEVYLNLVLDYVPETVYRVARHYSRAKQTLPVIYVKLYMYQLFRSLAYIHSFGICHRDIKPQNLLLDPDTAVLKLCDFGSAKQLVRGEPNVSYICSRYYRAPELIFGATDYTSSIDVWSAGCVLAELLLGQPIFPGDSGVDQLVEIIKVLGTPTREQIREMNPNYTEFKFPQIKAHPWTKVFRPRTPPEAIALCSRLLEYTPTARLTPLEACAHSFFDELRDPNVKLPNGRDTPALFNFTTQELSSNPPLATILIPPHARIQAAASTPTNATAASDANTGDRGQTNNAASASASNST
How it was run: as §1

Sequence of Glycogen synthase kinase-3 alpha (P49840 whole entry): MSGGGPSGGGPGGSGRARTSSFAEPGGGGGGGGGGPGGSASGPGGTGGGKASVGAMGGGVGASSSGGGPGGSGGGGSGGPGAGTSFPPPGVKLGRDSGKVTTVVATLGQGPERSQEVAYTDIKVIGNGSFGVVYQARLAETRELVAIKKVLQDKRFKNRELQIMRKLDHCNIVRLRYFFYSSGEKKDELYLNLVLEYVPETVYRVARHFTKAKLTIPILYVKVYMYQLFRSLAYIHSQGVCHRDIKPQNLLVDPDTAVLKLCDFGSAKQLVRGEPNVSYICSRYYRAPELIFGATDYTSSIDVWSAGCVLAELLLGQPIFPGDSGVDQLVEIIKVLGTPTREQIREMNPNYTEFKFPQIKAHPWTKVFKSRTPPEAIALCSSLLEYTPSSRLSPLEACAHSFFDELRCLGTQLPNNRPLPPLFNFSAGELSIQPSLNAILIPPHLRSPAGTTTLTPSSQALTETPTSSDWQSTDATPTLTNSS

Row | Compound | IC50 [1] | IC50 [2]
1 | O=C1CC2(CSC2)CC2=C1C1(CCCC1)C1=CN=NC1N2 (configuration not stated) [US20250313563, Compound 913441] | 100 to 1000 nM | 100 to 1000 nM
2 | CC[C@@]1(c2cccc(-c3cc(C(F)(F)F)nn3C)c2)C2=CN=NC2NC2=C1C(=O)NC(C)(C)C2 (some centres not stated) [US20250313563, Compound 952018] | 100 to 1000 nM | 1000 to 5000 nM
3 | CCC1(c2cccc(S(=O)(=O)CC3CC3)c2)C2=C(CC(C)(C)NC2=O)NC2N=NC(C)=C21 (configuration not stated) [US20250313563, Compound 948178] | < 100 nM | < 100 nM
4 | CCC1(c2cccc(-c3cnn(C)c3)c2)C2=CN=NC2NC2=C1C(=O)CC(C)C2 (configuration not stated) [US20250313563, Compound 816752] | < 100 nM | 1000 to 5000 nM
5 | CC1(C)CC(=O)C2=C(C1)NC1=C(CN=N1)[C@]21CCc2c(F)cccc21 [US20250313563, Compound 806633] | < 100 nM | 100 to 1000 nM
6 | CC[C@@]1(c2cccc(-c3ccnn3C)c2)C2=CN=NC2NC2=C1C(=O)NC1(CCCC1)C2 (some centres not stated) [US20250313563, Compound 948018] | < 100 nM | < 100 nM
7 | CC[C@@]1(c2cccc(C(F)(F)F)c2)C2=CN=NC2NC2=C1C(=O)N(c1cn(C)nc1C)CC2 (some centres not stated) [US20250313563, Compound 949642] | 100 to 1000 nM | 1000 to 5000 nM
8 | Cn1nccc1CN1CC2(C1)C1=C(N=NC1)NC1=C2C(=O)CC(C)(C)C1 [US20250313563, Compound 932653] | 1000 to 5000 nM | > 5000 nM
9 | CC[C@]1(c2cccc(-c3cncn3C(C)C)c2)C2=CN=NC2NC2=C1C(=O)CC(C)(C)C2 (some centres not stated) [US20250313563, Compound 945729] | 100 to 1000 nM | 1000 to 5000 nM
10 | CC[C@]1(c2cccc(N(C)c3ccnc(C)c3)c2)C2=CN=NC2NC2=C1C(=O)CC(C)(C)C2 (some centres not stated) [US20250313563, Compound 932645] | 100 to 1000 nM | 1000 to 5000 nM
11 | CC1(C)CC2=C(C(=O)N1)C1(CCN(S(=O)(=O)c3ccc(F)cc3)CC1)C1=C(N=NC1)N2 [US20250313563, Compound 943963] | < 100 nM | < 100 nM
12 | CC1(C)CCC2(CC1)C1=C(N=NC1)NC1=C2C(=O)CC(C)(C)C1 [US20250313563, Compound 884107] | < 100 nM | 100 to 1000 nM
13 | CC[C@]1(c2cccc(-c3c(C)cncc3C)c2)C2=CN=NC2NC2=C1C(=O)NC(C)(C)C2 (some centres not stated) [US20250313563, Compound 948829] | > 5000 nM | > 5000 nM
14 | CC1(C)CC(=O)C2=C(C1)NC1=C(CN=N1)C21CCN(S(=O)(=O)C2CCCC2)CC1 [US20250313563, Compound 909206] | < 100 nM | < 100 nM and 100 to 1000 nM
15 | CCC1(c2cccc(-c3ccnc(C)c3)c2)C2=C(CC(C)(C)CC2=O)NC2N=NC(C)=C21 (configuration not stated) [US20250313563, Compound 883987] | < 100 nM | 100 to 1000 nM
16 | CC[C@]1(c2cccc(-c3ccncc3O)c2)C2=CN=NC2NC2=C1C(=O)CC(C)(C)C2 (some centres not stated) [US20250313563, Compound 945728] | 1000 to 5000 nM | > 5000 nM
17 | CO[C@H]1C[C@]2(C1)C1=C(N=NC1)NC1=C2C(=O)CC(C)(C)C1 [US20250313563, Compound 901472] | > 5000 nM | > 5000 nM
18 | CC[C@@]1(c2cccc(S(=O)(=O)C(C)C)c2)C2=C(CC(C)(C)NC2=O)NC2N=NC(C(F)(F)F)=C21 (some centres not stated) [US20250313563, Compound 948423] | < 100 nM | 100 to 1000 nM
19 | CC[C@]1(c2ccccc2)C2=CN=NC2NC2=C1C(=O)C[C@H](c1ccccc1)C2 (some centres not stated) [US20250313563, Compound 791265] | 1000 to 5000 nM | > 5000 nM
20 | CC[C@@]1(c2cccc(-c3ccnn3C)c2)C2=CN=NC2NC2=C1C(=O)N[C@]1(CCCOC1)C2 (some centres not stated) [US20250313563, Compound 948529] | < 100 nM and 100 to 1000 nM | 100 to 1000 nM and 1000 to 5000 nM
21 | CC[C@]1(c2cccc(N3CCOc4ccccc43)c2)C2=CN=NC2NC2=C1C(=O)CC(C)(C)C2 (some centres not stated) [US20250313563, Compound 932635] | > 5000 nM | > 5000 nM
